Tests used:
Mongolian gerbils = assay: Mongolian gerbil common carotid artery occlusion, hippocampus CA1 region histology (Examples 6-1 to 6-4); format: in vivo; settings: oral, 8, 40, 80 or 240 mg; carotid arteries occluded for ten minutes; hematoxylin-eosin sections
Description: A candidate compound was dissolved in physiological saline solution to prepare a 100 mM solution with the pH adjusted to 3 to 4 with 1 N NaOH as necessary. This solution was stored. The solution was diluted with physiological saline at time of use to prepare 0.5 ml of a solution containing 8 mg (Example 6-1), 40 mg (Example 6-2), 80 mg (Example 6-3), or 240 mg (Example 6-4) of a candidate compound. The above solution was administered to Mongolian gerbils. In Examples 6-1 to 6-3, 0.5 ml of the above solution was orally administered every 24 hours. In Example 6-4 the solutions was administered once.
Two hours after the second administration in Examples 6-1 to 6-3, both Mongolian gerbil common carotid arteries were occluded for ten minutes. The gerbils were sacrificed five days later. Two hours after administration in Example 6-4, both Mongolian gerbil common carotid arteries were occluded for ten minutes, and the gerbils were sacrificed three days later. Hematoxylin-eosin stained cross-sections of the brain hippocampus CA1 region tissue were prepared, and the stained sections were expand. […]

ALS model mice = assay: Therapeutic effect in ALS model mice (Cu/Zn-SOD gene transgenic mouse) (Example 7); format: in vivo
Description: The in vivo therapeutic effect of compound 1 was examined using an Amyotrophic Lateral Sclerosis (ALS) model animal.
A Cu/Zn-SOD gene transgenic mouse (Saishin Igaku, Vol. 57 (7), “new Amyotrophic Lateral Sclerosis (ALS) model animals”, July, 2002: p. 1622-1627: obtained from Dr. Masashi Aoki at Tohoku University, School of Medicine, Neurology) was used. The ALS model mice were divided into three groups (physiological saline administered group, compound 1 (8 mg/kg) administered group, compound 1 (40 mg/kg) administered group). Physiological saline, compound 1 (8 mg/kg), and compound 1 (40 mg/kg) were orally administered to each ALS mouse once a day from about 7 days before the predicted day of the symptom development (138-139 days after birth) until the day the mice died.

NAIP = NAIP production by western blotting in retinoic acid treated H-SY5Y cells (Example 2); format: cell-based; settings: low or high concentration of retinoic acid, 30 μl/ml of 10 mM candidate compound solution, one day, vs controls (lanes 1 and 3)
Description: • (1) 3 ml/well of DMEM-HG medium containing H-SY5Y cells (ATCC CRL 2266 strain obtained from American Type Culture Collection; 1×10^5 cells/ml), 10% fetal bovine serum (FBS), 100 units/ml penicillin, and 100 μg/ml streptomycin was aliquoted into each well of a 6 well plate, and incubated for two days at 37° C. Either 3 μl/well (lane 2) or 15 μl/well (lane 4) of all-trans retinoic acid (2 mM) was then added to each well. Wells were then incubated for tree days at 37° C. • (2) Next, 30 μl/ml of candidate compound solution (10 mM) was added to each well and incubated for one day at 37° C. After incubation, each well was washed with 0.25 M NaCl, then filled with 10% trichloroacetic acid (TCA) on ice, and kept on ice for ten minutes. Cells were collected with a scrap and centrifuged (14,000 rpm, ten minutes, 4° C.). To prepare the samples for electrophoresis, 100 μl of urea TX solution (9 M urea solution containing 2% Triton X-100 and 5% 2-mercaptoethanol), 25 μl of 10% lithium dodecyl sulfate (LDS) solution, and 2 μl of 2M Tris solution were added to the obtained pellets. The samples were stored at −80° C. • (3) The samples for electrophoresis obtained in (2) were homogenized and then 10 μl of each sample was loaded onto READYGELSJ (Bio Rad Laboratories) and electrophoresed at 120 V for 75 minutes to conduct SDS-PAGE. […]

HeLa cells = assay: Cell-death suppressing effect in HeLa cells with cell-death inducing agent, Alamar Blue viable cell count (Example 3); format: cell-based; settings: final concentration of 10 μM of each compound at the time of incubation
Description: • (1) HeLa cells (ATCC CCL2 strain obtained from American Type Culture Collection; 1×10^6 cells/ml) were incubated for ten hours at 37° C. under 5% CO2 in DMEM-HG medium supplemented with 10% FBS, 100 units/ml penicillin, and 100 μg/ml streptomycin in a T75 flask. A 250 μl solution containing a candidate compound (10 μM-10 mM) was added to 25 ml of the above culture and incubated for an additional 1, 1.5, or 2 days at 37° C. under 5% CO2. Cells were recovered, washed with the above medium, and counted. The cells were resuspended in the above fresh medium so the medium contained 1×10^5 cells/ml. • (2) 150 μl of the suspension obtained in (1) was added into each well of a 96 well plate and the plate was incubated for four hours at 37° C. […] After ten hours, luminescence was measured with a luminescence detector to determine the viable cell count at excitation and detection wavelengths of 530 nm and 560 nm, respectively. Moreover, the viable cell count of the control, which was prepared in the same way except that a candidate compound solution was not added “Control”) or DMSO was added instead of a candidate compound “DMSO”), was also determined. […]

Compound | suppression of cell deformation and deciduation in the CA1 region (Mongolian gerbils) | Days before symptom development (P < 0.01) (ALS model mice; 8 mg/kg orally once a day) [days] | Days between symptom development and death (P < 0.01) (ALS model mice; 8 mg/kg orally once a day) [days] | Days of survival (P < 0.01) (ALS model mice; 8 mg/kg orally once a day) [days] | Days before symptom development (P < 0.01) (ALS model mice; 40 mg/kg orally once a day) [days] | Days between symptom development and death (P < 0.01) (ALS model mice; 40 mg/kg orally once a day) [days] | Days of survival (P < 0.01) (ALS model mice; 40 mg/kg orally once a day) [days] | effect on onset and on period between development of symptoms and death (ALS model mice; 40 mg/kg orally once a day) | 160 kDa bands, presumably derived from NAIP (NAIP) | Result (cell-death suppressing effect, tests of Example 3) (HeLa cells)
Clc1ccc(N2CCN(Cc3c[nH]c4ncccc34)CC2)cc1 [Compound 1] | dose-dependent suppression of cell deformation and deciduation in the CA1 region | 138.1 ± 1.9 | 23.6 ± 2.0 | 161.7 ± 3.3 | 145.2 ± 1.8 | 28.9 ± 1.6 | 174.6 ± 2.4 | delaying the onset and prolonging the period between the development of symptoms and the death | significantly strong 160 kDa bands | 
Cc1c(C2CCN(CCc3ccccc3)CC2)noc1-c1ccc(Cl)cc1 [Compound 2, 5-(4-chlorophenyl)-4-methyl-3-(1-(2-phenylethyl)piperidin 4-yl) isoxazole] |  |  |  |  |  |  |  |  |  | + or ±

— patent US20050261306A1, “Anti-neurodegenerative agents” (priority 2002, published 2005)
